Results: PMC10569036

Legend:
[1] = shake flask on a mixture of 185; loss from the water phase only; LC-QTOF peak areas; details: room
[2] = shake flask on a mixture of 185; loss from the water phase only; LC-Orbitrap peak areas; details: room

SMILES	log partition 1-octanol / HPLC water, unbuffered, traces of methanol / DMSO [1] [log10]	log partition butyl acetate / HPLC water, unbuffered, traces of methanol / DMSO [1] [log10]	log partition chloroform / HPLC water, unbuffered, traces of methanol / DMSO [1] [log10]	log partition cyclohexane / HPLC water, unbuffered, traces of methanol / DMSO [1] [log10]	log partition dichloromethane / HPLC water, unbuffered, traces of methanol / DMSO [1] [log10]	log partition n-hexane / HPLC water, unbuffered, traces of methanol / DMSO [1] [log10]	log partition n-octane / HPLC water, unbuffered, traces of methanol / DMSO [1] [log10]	log partition n-undecane / HPLC water, unbuffered, traces of methanol / DMSO [1] [log10]	log partition oleylalcohol / HPLC water, unbuffered, traces of methanol / DMSO [1] [log10]	log partition toluene / HPLC water, unbuffered, traces of methanol / DMSO [1] [log10]	log partition 1-octanol / HPLC water, unbuffered, traces of methanol / DMSO [2] [log10]	log partition butyl acetate / HPLC water, unbuffered, traces of methanol / DMSO [2] [log10]	log partition chloroform / HPLC water, unbuffered, traces of methanol / DMSO [2] [log10]	log partition cyclohexane / HPLC water, unbuffered, traces of methanol / DMSO [2] [log10]	log partition dichloromethane / HPLC water, unbuffered, traces of methanol / DMSO [2] [log10]	log partition n-hexane / HPLC water, unbuffered, traces of methanol / DMSO [2] [log10]	log partition n-octane / HPLC water, unbuffered, traces of methanol / DMSO [2] [log10]	log partition n-undecane / HPLC water, unbuffered, traces of methanol / DMSO [2] [log10]	log partition oleylalcohol / HPLC water, unbuffered, traces of methanol / DMSO [2] [log10]	log partition toluene / HPLC water, unbuffered, traces of methanol / DMSO [2] [log10]
CO/N=C(/C1=NOCCO1)c1ccccc1Oc1ncnc(Oc2ccccc2Cl)c1F	2.317	2.442	2.253	1.674	2.488	1.734	1.431	1.557	2.253	2.389	3.061	2.459	1.134	1.413	1.68	1.053	1.336	1.233	1.908	1.832
Nc1cc2c3c(c1)C(c1ccccc1)=N[C@@H](NC(=O)c1cccnc1)C(=O)N3CC2	1.4	1.224	1.953	-0.8456	2.001	-0.527	-1.018	-1.615	1.111	0.4515	1.8	1.849	1.811	-0.6201	1.949	-0.5688	-0.5885	-0.7259	1.341	0.4674
CC(C)C1(C)N=C(c2nc3ccccc3cc2C(=O)O)NC1=O (stereo not drawn)	-0.1003	0.3218	-1.426	-1.269	-0.4187	-0.9732	-1.466	-1.153	0.635	-0.5162	0.3193	-0.573	-0.8011	-1.428	-0.4847	-1.375	-1.474	-1.445	-0.2597	-1.419
